Experiment [1] can be described thus: Inhibition of amyloid beta (1-42) self-mediated aggregation at 20 uM by thioflavin T fluorescence method.
In the next experiment the target is Acetylcholinesterase (Electrophorus electricus, UniProt O42275).
The target of a further experiment is Butyrylcholinesterase (Equus caballus, UniProt Q9N1N9).
Sequence of Butyrylcholinesterase (Q9N1N9 whole entry): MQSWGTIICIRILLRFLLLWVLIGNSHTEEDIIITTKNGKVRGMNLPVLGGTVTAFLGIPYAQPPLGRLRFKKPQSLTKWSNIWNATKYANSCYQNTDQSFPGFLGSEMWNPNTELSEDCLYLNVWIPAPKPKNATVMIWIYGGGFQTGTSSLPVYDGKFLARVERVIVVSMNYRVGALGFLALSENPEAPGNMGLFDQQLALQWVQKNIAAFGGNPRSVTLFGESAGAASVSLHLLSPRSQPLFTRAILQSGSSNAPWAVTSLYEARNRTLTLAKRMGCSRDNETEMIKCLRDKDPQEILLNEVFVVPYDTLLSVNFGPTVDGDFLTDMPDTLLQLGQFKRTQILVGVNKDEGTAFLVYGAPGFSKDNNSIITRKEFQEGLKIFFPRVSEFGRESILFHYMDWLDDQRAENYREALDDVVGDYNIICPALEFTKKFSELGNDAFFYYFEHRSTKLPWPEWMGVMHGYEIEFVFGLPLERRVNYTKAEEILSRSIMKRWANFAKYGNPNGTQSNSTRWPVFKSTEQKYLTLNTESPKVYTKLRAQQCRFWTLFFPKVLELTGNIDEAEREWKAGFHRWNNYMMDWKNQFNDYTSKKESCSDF

Sequence of Acetylcholinesterase (O42275 whole entry): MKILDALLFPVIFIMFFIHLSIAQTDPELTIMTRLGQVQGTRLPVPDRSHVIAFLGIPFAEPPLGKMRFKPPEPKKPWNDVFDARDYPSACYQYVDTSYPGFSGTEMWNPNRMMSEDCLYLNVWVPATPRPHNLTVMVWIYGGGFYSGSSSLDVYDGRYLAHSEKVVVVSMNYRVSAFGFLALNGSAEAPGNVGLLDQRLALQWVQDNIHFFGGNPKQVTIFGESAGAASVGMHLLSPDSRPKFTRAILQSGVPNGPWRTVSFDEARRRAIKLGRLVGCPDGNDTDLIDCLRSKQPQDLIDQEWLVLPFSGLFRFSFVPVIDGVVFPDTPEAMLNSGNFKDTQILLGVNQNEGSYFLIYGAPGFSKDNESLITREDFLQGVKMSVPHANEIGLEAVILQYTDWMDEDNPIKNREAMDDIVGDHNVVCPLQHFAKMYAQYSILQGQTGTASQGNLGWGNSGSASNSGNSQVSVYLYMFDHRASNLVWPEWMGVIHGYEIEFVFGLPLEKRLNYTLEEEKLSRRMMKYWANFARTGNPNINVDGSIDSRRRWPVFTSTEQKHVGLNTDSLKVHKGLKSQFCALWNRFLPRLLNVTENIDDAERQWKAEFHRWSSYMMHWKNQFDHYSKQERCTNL
Description for Acetylcholinesterase: Inhibition of electric eel AChE by Ellman's method
Description for Butyrylcholinesterase: Inhibition of equine BChE by Ellman's method

In experiment [1], `COc1cc(CNCCCCCCCCCNc2c3c(nc4ccccc24)CCCC3)cc2c1OCO2` came in with an inhibition of 68.5%. For the same compound, the IC50 was found to be 18.7 nM against Acetylcholinesterase and 11.4 nM against Butyrylcholinesterase.
Taken in the same sequence, the figures for `COc1cc(CNCCCCCCCCNc2c3c(nc4ccccc24)CCCC3)cc2c1OCO2` were 65.2%, 7.98 nM and 7.94 nM.
Regarding `COc1cc(CNCCCCCCCNc2c3c(nc4ccccc24)CCCC3)cc(OC)c1OC`, the 50% inhibitory concentration (IC50) worked out at 17.3 nM at Acetylcholinesterase and 3.55 nM on Butyrylcholinesterase.
Taken in the same sequence, the figures for `COc1ccc(CNCCCCCCNc2c3c(nc4ccccc24)CCCC3)cc1OC` were 30.9 nM and 2.68 nM.
In turn, `COc1cc(CNCCCCCCCNc2c3c(nc4ccccc24)CCCC3)cc2c1OCO2` came in with an inhibition in experiment [1] of 65%. The IC50 at Acetylcholinesterase came to 18.4 nM; against Butyrylcholinesterase, 9.73 nM.
Consider `COc1cc(CNCCCCCCCCNc2c3c(nc4ccccc24)CCCC3)cc(OC)c1OC`, for which the IC50 amounted to 9.77 nM against Acetylcholinesterase and 3.38 nM at Butyrylcholinesterase.
Taken in the same sequence, the figures for `COc1ccc(CNCCCCCCCCCNc2c3c(nc4ccccc24)CCCC3)cc1OC` were 25.1 nM and 5.67 nM.
Taken in the same sequence, the figures for `COc1ccc(CNCCCCCCCNc2c3c(nc4ccccc24)CCCC3)cc1OC` were 24 nM and 5.51 nM.
In experiment [1], `COc1cc(CNCCCCNc2c3c(nc4ccccc24)CCCC3)cc2c1OCO2` showed an inhibition of 63.8%. Moreover, the IC50 stood at 113 nM at Acetylcholinesterase and 46.3 nM against Butyrylcholinesterase.
On to `COc1cc(CNCCCCCCNc2c3c(nc4ccccc24)CCCC3)cc(OC)c1OC`, for which the IC50 worked out at 22.4 nM at Acetylcholinesterase and 2.59 nM against Butyrylcholinesterase.
Taken in the same sequence, the figures for `COc1cc(CNCCCCCCCCCNc2c3c(nc4ccccc24)CCCC3)cc(OC)c1OC` were 20.2 nM and 4.73 nM.
In experiment [1], `COc1cc(CNCCCCCCNc2c3c(nc4ccccc24)CCCC3)cc2c1OCO2` yielded an inhibition of 67.1%. In addition, the IC50 stood at 20.5 nM against Acetylcholinesterase and 5.19 nM against Butyrylcholinesterase.
As to `COc1ccc(CNCCCCCCCCNc2c3c(nc4ccccc24)CCCC3)cc1OC`, the IC50 against Acetylcholinesterase is 11.3 nM; against Butyrylcholinesterase, 5.57 nM.
Turning to `COc1cc(CNCCCCCNc2c3c(nc4ccccc24)CCCC3)cc2c1OCO2`, the inhibition in experiment [1] amounted to 63.1%. For the same compound, the IC50 against Acetylcholinesterase was 78.6 nM; on Butyrylcholinesterase, 29.8 nM.

For the origin of these results see ChEMBL document CHEMBL1641506, “Design, synthesis and evaluation of novel tacrine-multialkoxybenzene hybrids as dual inhibitors for cholinesterases and amyloid beta aggregation” (Bioorg Med Chem, 2011).
